Assays:
vimentin = assay: Western blot of vimentin expression; assay type: cell-based; details: cell lines resistant to an ALK inhibitor
Text: The results are illustrated in FIG. 13.

EGFR = assay: Western blot of EGFR activity after verteporfin; assay type: cell-based; details: cell line that has acquired resistance to an ALK inhibitor; pretreatment with verteporfin
Text: The results are illustrated in FIG. 12.

[1] = tested on: CR pool, CR #1, and CR #3 cell lines; assay: Cell proliferation after adding mevalonate pathway byproducts to cerivastatin-treated cells; assay type: cell-based; details: CR #1, CR #3, byproduct added after cerivastatin treatment
Text: A statin-based drug is a suppressor of HMG-CoA reductase which is an enzyme converting 3-hydroxy-3-methylglutaryl coenzyme A (HMG-CoA) into mevalonic acid in the mevalonate pathway, and is known as a cholesterol-lowering agent, but is known to affect various intracellular signaling processes by suppressing the production of isoprenoids (Farnesyl pyrophosphate; […] GGPP) acting as a substrate for isoprenylation of a target protein among final byproducts of the mevalonate pathway in addition to cholesterol. Thus, after the present research team treated H3122 parental, CR pool, CR #1, and CR #3 cell lines with cerivastatin in order to see which one of the byproducts mediated by the mevalonate pathway is involved in acquiring resistance to an ALK inhibitor, the proliferation of cells was identified after mevalonate, GGPP, FPP, and squalene, which are byproducts of each step, were each added. The results are illustrated in FIG. 6A.

[2] = tested on: p21, cleaved PARP, and cleaved caspase 3; assay: Western blot of p21 and apoptosis-related proteins, crizotinib-resistant cell lines; assay type: cell-based
YAP = assay: Western blot of YAP phosphorylation, crizotinib-resistant cell line; assay type: cell-based
Text: YAP is accumulated in the nucleus to form a complex with TEAD when phosphorylation is suppressed, and is known as an oncogene which promotes the excessive proliferation of cancer cells and the metastasis of cancer by inducing the expression of a gene associated with cancer. In addition, YAP as a transcription factor has been reported to be involved even in the expression of EGFR and an EGFR ligand. Recently, it has been reported that the mevalonate pathway which is an important mechanism in cancer cell metabolism regulates YAP activity, and particularly, geranylgeranylation may directly affect YAP activity. […] The results are illustrated in FIG. 7. FIGS. 7A and 7B identify the expression pattern of YAP when GGPP and […] are treated, respectively through a western blot, and FIG. 7C illustrates whether YAP moves into the nucleus through an immunocytochemistry analysis.

[3] = tested on: p21, cleaved caspase 3, PARP, YAP; assay: Western blot of p21, cleaved caspase 3, PARP and YAP, ceritinib-resistant cell line; assay type: cell-based; details: cell line resistant to ceritinib
[4] = tested on: cell line resistant to the ALK inhibitor; assay: Evaluation of antitumor efficacy of statin-based drugs; details: cell line resistant to the ALK inhibitor versus parental
Text: The results are illustrated in FIG. 4A.

H3122 CR pool cells = assay: FDA approved drug library growth inhibition selection, resistant cells; assay type: cell-based; details: 1 μM for 72 hours
H3122 parental cells = assay: FDA approved drug library growth inhibition selection, parental cells; assay type: cell-based; details: 1 μM for 72 hours
AKT and ERK = assay: Immunoblot of lower and bypass signaling pathway of ALK, ceritinib-resistant cell line; assay type: cell-based; details: cell line resistant to ceritinib
[5] = tested on: cell line that has acquired resistance to crizotinib; assay: Cell survival rate of cell line that has acquired resistance to crizotinib after ALK/EGFR inhibitor treatment; assay type: cell-based; details: crizotinib-resistant H3122 cell line
Description: Subsequently, studies on the mechanism of acquiring resistance to an ALK inhibitor in the Experimental Examples were carried out by representatively using CR pool, CR #1, and CR #3.

[6] = added to cerivastatin-treated cells

Compound: verteporfin
- expression of vimentin (vimentin): clearly decreased
- activity of EGFR (EGFR): concentration-dependently suppressed

Compound: CC(C)=CCC/C(C)=C/CC/C(C)=C/CC/C(C)=C/COP(=O)(O)OP(=O)(O)O [GGPP, Geranylgeranyl pyrophosphate]
- proliferation of cells suppressed by cerivastatin [1]: restored
- expression of cleaved PARP increased by cerivastatin [2, 6]: again decreased
- expression of cleaved caspase 3 increased by cerivastatin [2, 6]: again decreased
- expression of p21 increased by cerivastatin [2, 6]: again decreased
- phosphorylation of YAP (YAP; added together with cerivastatin): again reduced

Compound: COC(=O)[C@H](CC(C)C)NC(=O)c1ccc(NC[C@@H](N)CS)cc1-c1cccc2ccccc12 [GGTI-298]
- expression of cleaved PARP ([2]; western blot, agent alone): concentration dependently induced
- expression of cleaved caspase 3 ([2]; western blot, agent alone): concentration dependently induced
- expression of p21 ([2]; western blot, agent alone): concentration dependently induced
- expression of PARP [3]: concentration-dependently induced
- expression of p21 [3]: concentration-dependently induced
- phosphorylation of YAP (YAP; western blot, agent alone): increasing

Compound: CC(C)c1c(C(=O)Nc2ccccc2)c(-c2ccccc2)c(-c2ccc(F)cc2)n1CC[C@@H](O)C[C@@H](O)CC(=O)O [atorvastatin]
- antitumor efficacies [4]: specifically exhibited antitumor efficacies against a cell line resistant to the ALK inhibitor

Compound: CC(C)=CCC/C(C)=C/CC/C(C)=C/CC/C=C(\C)CC/C=C(\C)CCC=C(C)C [squalene]
- proliferation of cells suppressed by cerivastatin [1]: did not have any effect

Compound: COc1cccc2c1C(=O)c1c(O)c3c(c(O)c1C2=O)C[C@@](O)(C(=O)CO)C[C@@H]3O[C@H]1C[C@H](N)[C@H](O)[C@H](C)O1 [doxorubicin]
- growth of cells (H3122 CR pool cells): suppressed the growth
- growth of cells (H3122 parental cells): suppressed the growth

Compound: CC(=O)O[C@@]12CO[C@@H]1C[C@H](O)[C@@]1(C)C(=O)[C@H](O)C3=C(C)[C@@H](OC(=O)[C@H](O)[C@@H](NC(=O)OC(C)(C)C)c4ccccc4)C[C@@](O)([C@@H](OC(=O)c4ccccc4)[C@H]21)C3(C)C [docetaxel]
- growth of cells (H3122 CR pool cells): suppressed the growth
- growth of cells (H3122 parental cells): suppressed the growth

Compound: CC(C)c1nc(N(C)S(C)(=O)=O)nc(-c2ccc(F)cc2)c1/C=C/[C@@H](O)C[C@@H](O)CC(=O)O [rosuvastatin]
- antitumor efficacies [4]: specifically exhibited antitumor efficacies against a cell line resistant to the ALK inhibitor

Compound: CC(O)(CCO)CC(=O)O (stereo not shown) [mevalonate]
- proliferation of cells suppressed by cerivastatin [1]: restored

Compound: CC(C)=CCC/C(C)=C/CC/C(C)=C/COP(=O)(O)OP(=O)(O)O [FPP, Farnesyl pyrophosphate]
- proliferation of cells suppressed by cerivastatin [1]: did not have any effect

Compound: Cc1cc(Nc2ncc(Cl)c(Nc3ccccc3S(=O)(=O)C(C)C)n2)c(OC(C)C)cc1C1CCNCC1 [ceritinib]
- activity of AKT (AKT and ERK): not suppressed
- activity of ERK (AKT and ERK): not suppressed
- proliferation of the cell line that had acquired resistance (cell survival rate) [5]: not suppressed
